Columns and labels:
[1] = test system: p-AKT S473 in PC3 human prostate tumours; assay: In vivo xenograft mechanism of action study; set-up: species or system athymic nude mice; conditions: PC3 tumours xenografted onto nude mice, treated once with 50 mg/kg p.o., 5 hours post treatment
From the text: To this extent PC3 human prostate tumours were xenografted onto athymic nude mice. PC3 tumour cells were cultivated according to ATCC protocols in recommended media contained 10% FCS and harvested for transplantation in a subconfluent (70%) state. 3×10^6 tumour cells suspended in 50% Matrigel were subcutaneously implantated into the inguinal region of male mice. Tumours were allowed to grow to the predetermined size of 60-80 mm^2. When the tumours were approximately in size, the animals were randomized to treatment and control groups (groups size: 9 animals) and treatment was started. Animals were treated once with 50 mg/kg compound or vehicle per oral administration (p.o.) carried out via a gastric tube. Treatment of each animal was based on individual body weight. At 2, 5 and 24 hours post treatment 3 animals each were sacrificed and the PC3 tumours excised. Tumour samples of approximately 5×5×5 mm were lysed on ice in MSD lysis buffer in the presence of protease and phosphatase inhibitors using Tissue Lyzer (Qiagen, Germany). The levels of p-AKT S473 in extracts from tumour tissue were analysed in an ELISA based assay. This assay is based on the “Akt Duplex” of the MULTI-SPOT® Assay System (Fa. Meso Scale Discovery, Cat #N41100B-1) following manufacturers instructions. Each assay used 20 μg of protein extract and measured total AKT and p-AKT content simultaneously in one well. All measurements where at least done in duplicates and confirmed by independent repetition.
Values for P-AKT are expressed as percentage of P-AKT level compared to total-AKT content of the extracts. Vehicle treated tumours were analyzed to determine the basal level of P-AKT in this model and used as a normalization control to determine the % P-AKT relative to vehicle levels.

[2] = target: T1, His-tagged human recombinant kinase full-length Akt1 (Homo sapiens, UniProt P31749); assay: Akt1 kinase assay (TR-FRET); assay type: biochemical; conditions: 10 μM ATP, 60 min at 22° C., read-out: Akt1, median IC50
T1 construct: His-tagged human recombinant kinase full-length Akt1; His; purchased Invitrogen PV 3599; host or cells: insect cells
T1 sequence (P31749 whole entry): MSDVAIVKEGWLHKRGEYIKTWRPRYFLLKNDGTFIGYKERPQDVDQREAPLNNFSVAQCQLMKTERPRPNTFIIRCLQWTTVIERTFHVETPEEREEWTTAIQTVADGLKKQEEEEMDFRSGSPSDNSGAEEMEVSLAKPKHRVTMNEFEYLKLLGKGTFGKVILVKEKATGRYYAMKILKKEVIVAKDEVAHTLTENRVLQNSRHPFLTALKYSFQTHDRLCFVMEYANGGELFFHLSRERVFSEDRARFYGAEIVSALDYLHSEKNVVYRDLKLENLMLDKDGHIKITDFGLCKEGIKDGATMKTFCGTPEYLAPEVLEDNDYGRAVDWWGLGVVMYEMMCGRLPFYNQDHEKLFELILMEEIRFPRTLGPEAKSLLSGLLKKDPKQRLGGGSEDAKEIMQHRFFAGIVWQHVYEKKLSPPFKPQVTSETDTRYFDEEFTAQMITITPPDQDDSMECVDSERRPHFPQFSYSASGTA
From the text: Akt1 inhibitory activity of compounds of the present invention was quantified employing the Akt1 TR-FRET assay as described in the following paragraphs.
His-tagged human recombinant kinase full-length Akt1 expressed in insect cells was purchased form Invitrogen (part number PV 3599). As substrate for the kinase reaction the biotinylated peptide biotin-Ahx-KKLNRTLSFAEPG (C-terminus in amide form) was used which can be purchased e.g. from the company Biosynthan GmbH (Berlin-Buch, Germany).
For the assay 50 nl of a 100 fold concentrated solution of the test compound in DMSO was pipetted into a black low volume 384well microtiter plate (Greiner Bio-One, Frickenhausen, Germany), 2 μl of a solution of Akt1 in assay buffer [50 mM TRIS/HCl pH 7.5, 5 mM MgCl2, 1 mM dithiothreitol, 0.02% (v/v) Triton X-100 (Sigma)] were added and the mixture was incubated for 15 min at 22° C. to allow pre-binding of the test compounds to the enzyme before the start of the kinase reaction. Then the kinase reaction was started by the addition of 3 μl of a solution of adenosine-tri-phosphate (ATP, 16.7 μM=>final conc. in the 5 μl assay volume is 10 μM) and substrate (1.67 μM=>final conc. in the 5 μl assay volume is 1 μM) in assay buffer and the resulting mixture was incubated for a reaction time of 60 min at 22° C. The concentration of Akt1 in the assay was adjusted depending of the activity of the enzyme lot and was chosen appropriate to have the assay in the linear range, typical enzyme concentrations were in the range of about 0.05 ng/μl (final conc. in the 5 μl assay volume).
The reaction was stopped by the addition of 5 μl of a solution of HTRF detection reagents (200 nM streptavidine-XL665 [Cisbio] and 1.5 nM anti-phosho-Serine antibody [Millipore, cat. #35-001] and 0.75 nM LANCE Eu-W 1024 labeled anti-mouse IgG antibody [Perkin Elmer]) in an aqueous EDTA-solution (100 mM EDTA, 0.1% (w/v) bovine serum albumin in 50 mM HEPES/NaOH pH 7.5). The resulting mixture was incubated 1 h at 22° C. to allow the binding of the biotinylated phosphorylated peptide to the streptavidine-XL665 and the antibodies. Subsequently the amount of phosphorylated substrate was evaluated by measurement of the resonance energy transfer from the anti-mouse-IgG-Eu-Chelate to the streptavidine-XL665. Therefore, the fluorescence emissions at 620 nm and 665 nm after excitation at 350 nm was measured in a HTRF reader, e.g. a Rubystar (BMG Labtechnologies, Offenburg, Germany) or a Viewlux (Perkin-Elmer). The ratio of the emissions at 665 nm and at […] was taken as the measure for the amount of phosphorylated substrate. The data were normalised (enzyme reaction without inhibitor=0% inhibition, all other assay components but no enzyme=100% inhibition).

[3] = test system: phospho-AKT at S473 in KPL4 breast tumour cell line; assay: Cellular p-AKT1/2/3-S473 assay; assay type: cell-based; conditions: KPL4 cells, treated with compounds for 2 hours; read-out: pAKT-S743 median IC50
Protocol: The molecular mechanism of action was investigated in a set of experiments to assess the inhibition of the PI3K-AKT-mTOR pathway in responsive cell lines such as KPL4 breast tumour cell line (PIK3CAH1047R, HER20/E and hormone independent). The phospho-substrates of PI3K-AKT-mTOR axis were used as the read-outs to reflect pathway inhibition. Cells were seeded at 60-80% confluency per well in 96-well cell culture plates. After overnight incubation at 37° C. 5% CO2, cells were treated with compounds and vehicle at 37° C. for 2 hours. Thereafter, cells were lysed in 150 μl lysis buffer and the levels of phospho-AKT at T308 and S473 and p-4E-BP1 at T70 sites were determined with the corresponding AlphaScreen® SureFire® assay kits (Perkin Elmer: 4E-BP1 Assay Kit Cat # TRG4E2S10K; Akt 1/2/3 p-Ser 473 #TGRA4S500 and Akt 1/2/3 p-Thr 308 #TGRA3S500 as well as IgG detection Kit #6760617M) as described in the manuals. All measurements where at least done in duplicates and confirmed by independent repetition.
Alternatively pAKT-S473 was measured using the “Akt Duplex” of the MULTI-SPOT® Assay System (Fa. Meso Scale Discovery, Cat#N41100B-1) following manufacturers instructions. Each assay used 20 μg of protein extract and measured total AKT and p-AKT content simultaneously in one well. All measurements where at least done in duplicates and confirmed by independent repetition. Values for P-AKT are expressed as percentage of P-AKT level compared to total-AKT content of the extracts.

IC50 [2] [nM] | IC50 [3] [nM] | SMILES | P-AKT % relative to control at 5 hours [1] [%]
329 | 230 | CS(=O)(=O)c1ccc(-c2cnc3nc(-c4ccc(C5(N)CCC5)cc4)c(-c4ccccc4)cn23)cc1 [Example 4-0, 1-{4-[3-(4-Methansulfonyl-phenyl)-6-phenyl-imidazo[1,2-a]pyrimidin-7-yl]-phenyl}-cyclobutylamine] | –
1410 | 920 | NC1(c2ccc(-c3nc4ncc(-c5ccc(F)cc5)n4cc3-c3ccccc3)cc2)CCC1 [Example 6-0, 1-{4-[3-(4-Fluorophenyl)-6-phenyl-imidazo[1,2-a]pyrimidin-7-yl]-phenyl}-cyclobutylamine] | –
824 | 1150 | NC(=O)c1cccc(-c2cnc3nc(-c4ccc(C5(N)CCC5)cc4)c(-c4ccccc4)cn23)c1 [Example 6-2, 3-{7-[4-(1-Amino-cyclobutyl)-phenyl]-6-phenyl-imidazo[1,2-a]pyrimidin-3-yl}-benzamide] | –

The remaining lines, values behind:

SMILES | IC50 [2] [nM] | IC50 [3] [nM] | P-AKT % relative to control at 5 hours [1] [%]
Cc1nc2nc(-c3ccc(C4(N)CCC4)cc3)c(-c3ccccc3)cn2n1 [Example 1-0, 1-[4-(2-methyl-6-phenyl-[1,2,4]triazolo[1,5-a]pyrimidin-5-yl)-phenyl]-cyclobutylamine] | 794 | – | 3.2
Cc1cn2cc(-c3ccccc3)c(-c3ccc(C4(N)CCC4)cc3)nc2n1 [Example 2-1, 1-[4-(2-Methyl-6-phenyl-imidazo[1,2-a]pyrimidin-7-yl)-phenyl]-cyclobutylamine] | 474 | – | 6.7
Cn1cc(-c2nc3nc(-c4ccc(C5(N)CCC5)cc4)c(-c4ccccc4)cn3n2)cn1 [Example 5-2, 1-{4-[2-(1-methyl-1H-pyrazol-4-yl)-6-phenyl-[1,2,4]triazolo[1,5-a]pyrimidin-5-yl]-phenyl}-cyclobutylamine] | 376 | 130 | 17.9
NC1(c2ccc(-c3nc4ncc(-c5cn[nH]c5)n4cc3-c3ccccc3)cc2)CCC1 [Example 6-3, 1-{4-[6-Phenyl-3-(1H-pyrazol-4-yl)-imidazo[1,2-a]pyrimidin-7-yl]-phenyl}-cyclobutylamine] | 235 | 240 | –

— patent US20130184273A1, “BICYCLIC PYRIMIDINES” (Bayer Intellectual Property GmbH, priority 2010, published 2013)
